This is an account of results in ChEMBL document CHEMBL4673187, “Recent developments of small molecule gamma-secretase modulators for Alzheimer''s disease” (RSC Med Chem, 2020).

A short description of data set [1]: Modulation of gamma secretase in Wistar rat fetal brain-derived neuronal cell incubated for 3 days by ELISA. The conditions noted are these: 72 h. (In an ELISA, binding on a coated surface is turned into a signal by an enzyme label.)
For data set [2], the target named is Gamma-secretase. In words: Modulation of gamma-secretase in human H4 cells expressing human APP assessed as reduction in amyloid beta42 level incubated for 22 hrs. Type of data set: cell-based.
Data set [3] is described as follows: Maximum concentration of drug in po dosed CF1 mouse brain and measured at 4 hrs by liquid chromatography and tandem mass spectrometry. The format is ADME, organism-based. Also on record: route oral, time 4 hrs.
Data set [4] can be described thus: In vivo modulation of gamma secretase in transgenic Tg2576 mouse assessed as reduction in insoluble amyloid beta42 level at 60 mg/kg, po administered once daily for 65 days by ELISA relative to control. The format is functional. Also on record: scale not given: the % may be the effect or the level left. The conditions noted are these: time 65 day.
Data set [5] is described as follows: In vivo modulation of gamma secretase in CF1 mouse assessed as increase in plasma amyloid beta38 level at 100 mg/kg, po measured after 4 hrs by ELISA relative to control. The format is functional.
A short description of data set [6]: In vivo modulation of gamma secretase in CF1 mouse assessed as reduction in plasma amyloid beta42 level at 100 mg/kg, po measured after 4 hrs by ELISA relative to control. Type of data set: functional. Also on record: scale not given: the % may be the effect or the level left.
The nature of data set [7]: In vivo modulation of gamma secretase in transgenic Tg2576 mouse assessed as reduction in soluble amyloid beta42 level at 60 mg/kg, po administered once daily for 65 days by ELISA relative to control. Particulars: time 65 day. The format is functional. Also on record: scale not given: the % may be the effect or the level left.
The target of data set [8] is Gamma-secretase. In words: Modulation of gamma-secretase in human H4 cells expressing human wild type APP751 assessed as reduction in amyloid beta42 level incubated for 17 hrs by ELISA. The format is cell-based.
Data set [9] can be described thus: In vivo modulation of gamma secretase in CF1 mouse assessed as reduction in brain amyloid beta40 level at 100 mg/kg, po measured after 4 hrs by ELISA relative to control. Type of data set: functional. Also on record: scale not given: the % may be the effect or the level left.
Data set [10] in a line: Modulation of gamma-secretase in CHO cells expressing APP V717F assessed as reduction in amyloid beta42 level. The format is cell-based. Particulars: Cricetulus griseus.
Data set [11] in a line: In vivo modulation of gamma secretase in CF1 mouse assessed as reduction in amyloid beta42 level at 10 mg/kg, po administered as single dose measured after 4 hrs by ELISA relative to control. Type of data set: functional. Also on record: scale not given: the % may be the effect or the level left.
Data set [12] is described as follows: Modulation of gamma-secretase in CHO cells expressing APP V717F assessed as increase in amyloid beta38 level. Type of data set: cell-based. The conditions noted are these: Cricetulus griseus.
A short description of data set [13]: Ratio of drug level in CF1 mouse brain to plasma at 3 to 100 mg/kg, po measured after 4 hrs by liquid chromatography and tandem mass spectrometry. Type of data set: ADME, organism-based. The conditions noted are these: dose 3-100 mg/kg, read-out: BPR.
Data set [14] is described as follows: In vivo modulation of gamma secretase in CF1 mouse assessed as reduction in plasma amyloid beta40 level at 100 mg/kg, po measured after 4 hrs by ELISA relative to control. Also on record: scale not given: the % may be the effect or the level left. Type of data set: functional.
Data set [15] concerns the target Gamma-secretase. In words: Modulation of gamma-secretase in human H4 cells expressing human wild type APP751 assessed as increase in amyloid beta38 level incubated for 17 hrs by ELISA. The format is cell-based.
A short description of data set [16]: In vivo modulation of gamma secretase in CF1 mouse assessed as reduction in brain amyloid beta42 level at 100 mg/kg, po measured after 4 hrs by ELISA relative to control. Also on record: scale not given: the % may be the effect or the level left. The format is functional.
A short description of data set [17]: In vivo modulation of gamma secretase in CF1 mouse assessed as increase in brain amyloid beta38 level at 100 mg/kg, po measured after 4 hrs by ELISA relative to control. The format is functional.
Data set [18] is described as follows: In vivo modulation of gamma secretase in CF1 mouse assessed as increase in amyloid beta38 level at 10 mg/kg, po administered as single dose measured after 16 hrs by ELISA relative to control. Type of data set: functional.
A short description of data set [19]: Lipophilicity, logD of the compound. Type of data set: physicochemical. The conditions noted are these: octanol/water.
Data set [20] can be described thus: In vivo modulation of gamma secretase in transgenic Tg2576 C57BL/6 mouse assessed as reduction in amyloid beta42 level at 10 mg/kg, po administered as single dose measured after 4 hrs by ELISA relative to control. The format is functional. Also on record: scale not given: the % may be the effect or the level left.
Data set [21] is described as follows: In vivo modulation of gamma secretase in transgenic Tg2576 C57BL/6 mouse assessed as reduction in amyloid beta42 level at 30 mg/kg, po administered as single dose measured after 4 hrs by ELISA relative to control. Also on record: scale not given: the % may be the effect or the level left. The format is functional.
Data set [22] in a line: In vivo modulation of gamma secretase in C57BL/6 mouse assessed as reduction in amyloid beta42 level at 30 mg/kg, po measured at 3 hrs relative to control. Also on record: scale not given: the % may be the effect or the level left. The format is functional.
The nature of data set [23]: In vivo modulation of gamma secretase in C57BL/6 mouse assessed as reduction in amyloid beta42 level at 10 mg/kg, po measured at 3 hrs relative to control. Also on record: scale not given: the % may be the effect or the level left. The format is functional.
Data set [24] can be described thus: Inhibition of notch signalling (unknown origin). Also on record: species or system Homo sapiens.

Usually IC50 stands for the concentration that gives 50% inhibition. As a reminder, the Cmax is the highest concentration seen after dosing. As a reminder, the EC50 is the concentration giving half of the maximal effect. For orientation: logD means the decadic logarithm of the distribution of all forms, ionised or not, between an organic phase and buffer at a given pH.

For the compound `COc1cc(/C=C2\CCCN([C@@H](C)c3ccc(F)cc3)C2=O)ccc1-n1cnc(C)c1`, the IC50 in [1] amounted to 93 nM.
For the compound `Cc1nsc(N2CCC(Nc3nc4c(-c5ccc(F)c(F)c5F)cccn4n3)C(F)(F)C2)n1` (stereo not given), the 50% inhibitory concentration (IC50) at Gamma-secretase [2] was 143 nM.
`CC1CCN([C@H](c2ccc(F)cc2)c2ccc([C@@H](C)C(=O)O)cc2-c2ccc(C(F)(F)F)cc2)CC1` yielded a Cmax in [3] of 7.5 µM. Also, the Activity in data set [4] was 80%; in [5] it was 82%; in [6], 45%; in [7] it was 50%; in [9], 16%; in data set [11], 40%. Moreover, the Activity in data set [14] is 25%; in data set [16] it was 60%; in data set [17], 98%; in data set [18] it was 50%. For the same compound, the IC50 is 64 nM at Gamma-secretase [8] and 170 nM in [10]. Further, the figures for the EC50 (in data set [12]; at Gamma-secretase [15]) were 150 nM and 146 nM, respectively. Moreover, the Kp at 4 h in [13] worked out at 0.8.
The compound `COc1cc(-c2nnc3n2CCCC32OCc3c(cccc3C(F)(F)F)N(CC(F)(F)F)C2=O)ccc1-c1cnc(C)o1` (stereo not given) registered a logD in data set [19] of 2.9.
For the compound `COc1cc(-c2nnc3n2CCCC32OCc3c(Cl)cccc3N(CC(F)(F)F)C2=O)ccc1-c1cnc(C)o1` (stereo not given), the logD in data set [19] amounted to 2.8.
With `O=C(O)[C@H](CC1CCC1)c1cc(Cl)c(OCC(F)(F)F)c(-c2ccc(C(F)(F)F)cc2)c1`, the Activity in data set [20] is recorded as 22%; in data set [21], 38%.
Regarding `COc1cc(-c2nnc3n2CCCC3c2ccc(Cl)c(Cl)c2)ccc1-c1cnc(C)o1` (stereo not given), the logD in data set [19] came to 3.2.
With `COc1cc(-c2nnc3n2CCCC3(Cc2ccc(F)c(F)c2)C(=O)NCC(F)(F)F)ccc1-c1cnc(C)o1` (stereo not given), in [22], the Activity stood at 4%. Further, in data set [19], the logD was determined as 3.
`COc1cc(-c2nnc3n2CCC[C@@]3(Oc2cc(F)c(F)c(F)c2)C(C)(C)O)ccc1-c1cnc(C)o1`: the logD in data set [19] is 3.2.
On to `COc1cc(-c2nnc3n2CCC[C@]3(Oc2cc(F)c(F)c(F)c2)C(C)(C)O)ccc1-c1cnc(C)o1`, for which, in [23], the Activity was 44%. The compound also registered a logD in [19] of 3.2. The compound further registered an IC50 in data set [24] not below 10000 nM.
Regarding `COc1cc(-c2nnc3n2CCCC3(Oc2ccc(F)c(Cl)c2)C(C)(C)O)ccc1-c1cnc(C)o1` (stereo not given), the logD in data set [19] was 3.2.
